Series [1] deals with T1, Poly [ADP-ribose] polymerase 1 (Homo sapiens, UniProt P09874). Description: Inhibition of recombinant human full-length PARP-1 using biotinylated substrate.
Series [2] has as its target T2, Poly [ADP-ribose] polymerase 2 (Homo sapiens, UniProt Q9UGN5). Nature of the series: Inhibition of recombinant human full-length PARP-2 using biotinylated substrate.
Series [3] is filed under the species Homo sapiens. Nature of the series: Selectivity index, ratio of IC50 for inhibition of recombinant human full-length PARP-2 to IC50 for inhibition of recombinant human full-length PARP-1.
The target in series [4] is T1, Poly [ADP-ribose] polymerase 1. Description: Inhibition of PARP-1 (unknown origin).
The target of series [5] is T2, Poly [ADP-ribose] polymerase 2. Description: Inhibition of PARP-2 (unknown origin).
For series [6], the species on record is Homo sapiens. Nature of the series: Selectivity index, ratio of IC50 for PARP-2 (unknown origin) to IC50 for PARP-1 (unknown origin).
Series [7] in a line: Toxicity in BALB/c nude mouse xenografted with human A549 cells assessed as change in body weight at 25 to 50 mg/kg, po administered once daily measured for 28 days in presence of CBP. The format is organism-based. Particulars: in vivo, 672 h, dose 25-50 mg/kg, time 28 day.
The nature of series [8]: Toxicity in BALB/c mouse xenografted with human SK-OV-3 cells assessed as change in body weight at 25 to 50 mg/kg, po administered once daily measured for 28 days. The format is organism-based. Particulars: in vivo, 672 h, dose 25-50 mg/kg, time 28 day. (In general: In xenograft studies the graft and the host belong to different species.)
For another series, the system named is SK-OV-3. Nature of the series: Antitumor activity against human SK-OV-3 cells xenografted in BALB/c nude mouse assessed as relative tumor volume at 50 mg/kg, po administered once daily for 12 days. In kind it is functional. The note with it: time 12 day.
The nature of series [9]: Cmax in Sprague-Dawley rat at 5 mg/kg, iv. The note with it: in vivo. The format is ADME, organism-based. Also on record: route intravenous, dose 5 mg/kg.
Series [10] can be described thus: Cmax in Sprague-Dawley rat at 50 mg/kg, po. The format is ADME, organism-based. Also on record: route oral, dose 50 mg/kg. Particulars: in vivo.
Series [11] can be described thus: AUC(0 to infinity) in Sprague-Dawley rat at 5 mg/kg, iv. Particulars: in vivo. On the set-up: route intravenous, time infinity, dose 5 mg/kg. The format is ADME, organism-based.
Series [12] is described as follows: AUC(0 to infinity) in Sprague-Dawley rat at 50 mg/kg, po. The format is ADME, organism-based. On the set-up: time infinity, route oral, dose 50 mg/kg. Particulars: in vivo.
A short description of series [13]: Tmax in Sprague-Dawley rat at 5 mg/kg, iv. In kind it is ADME, organism-based. The note with it: in vivo.
A short description of series [14]: Tmax in Sprague-Dawley rat at 50 mg/kg, po. The format is ADME, organism-based. The note with it: in vivo.
A short description of series [15]: Half life in Sprague-Dawley rat at 5 mg/kg, iv. In kind it is ADME, organism-based. Particulars: in vivo.
A short description of series [16]: Half life in Sprague-Dawley rat at 50 mg/kg, po. In kind it is ADME, organism-based. The note with it: in vivo.
Series [17] is described as follows: MRT in Sprague-Dawley rat at 5 mg/kg, iv. In kind it is ADME, organism-based. Particulars: in vivo.
A short description of series [18]: MRT in Sprague-Dawley rat at 50 mg/kg, po. The format is ADME, organism-based. The note with it: in vivo.
Series [19] can be described thus: Total plasma clearance in Sprague-Dawley rat at 5 mg/kg, iv. The format is ADME, organism-based.
The nature of series [20]: Volume of distribution at steady state in Sprague-Dawley rat at 5 mg/kg, iv. The note with it: in vivo, read-out: Vdss. The format is ADME, organism-based.
Series [21] is described as follows: Oral bioavailability in Sprague-Dawley rat at 50 mg/kg. The format is ADME, organism-based. Particulars: in vivo.
Series [22] is described as follows: Drug distribution in tumor of mouse xenografted with human SK-OV-3 cells at 100 mg/kg, po after 1 hr by LC-MS analysis. The format is ADME, organism-based, Neoplasm. The note with it: in vivo.
Series [23] is described as follows: Drug distribution in liver of mouse xenografted with human SK-OV-3 cells at 100 mg/kg, po after 9 hrs by LC-MS analysis. In kind it is ADME, organism-based. Particulars: in vivo.
A short description of series [24]: Drug distribution in spleen of mouse xenografted with human SK-OV-3 cells at 100 mg/kg, po after 9 hrs by LC-MS analysis. In kind it is ADME, organism-based. Particulars: in vivo.
A short description of series [25]: Acute toxicity in ICR mouse assessed as mortality at 200 to 1000 mg/kg, po administered for 14 days. The note with it: in vivo, 336 h, dose 200-1000 mg/kg, time 14 day. The format is organism-based.
A short description of series [26]: Acute toxicity in ICR mouse assessed as abnormalities at 200 to 1000 mg/kg, po administered for 14 days. The format is organism-based. Particulars: in vivo, 336 h, dose 200-1000 mg/kg, time 14 day.
A short description of series [27]: Subacute toxicity in ICR mouse assessed as death at 1000 mg/kg, po administered for 14 days. The format is organism-based. Particulars: in vivo, 336 h, time 14 day.
Series [28] in a line: Subacute toxicity in ICR mouse assessed as clinical abnormalities at 1000 mg/kg, po administered for 14 days. The note with it: in vivo, 336 h, time 14 day. In kind it is organism-based.
Series [29] in a line: Subacute toxicity in ICR mouse assessed as weight abnormalities at 1000 mg/kg, po administered for 14 days. In kind it is organism-based. The note with it: in vivo, 336 h, time 14 day.
A short description of series [30]: Toxicity in ICR mouse assessed as effect on main visceral organs at 1000 mg/kg, ig administered for 14 days by H and E analysis. Particulars: in vivo, po, 336 h, time 14 day. In kind it is organism-based.

T2 sequence (Q9UGN5 whole entry): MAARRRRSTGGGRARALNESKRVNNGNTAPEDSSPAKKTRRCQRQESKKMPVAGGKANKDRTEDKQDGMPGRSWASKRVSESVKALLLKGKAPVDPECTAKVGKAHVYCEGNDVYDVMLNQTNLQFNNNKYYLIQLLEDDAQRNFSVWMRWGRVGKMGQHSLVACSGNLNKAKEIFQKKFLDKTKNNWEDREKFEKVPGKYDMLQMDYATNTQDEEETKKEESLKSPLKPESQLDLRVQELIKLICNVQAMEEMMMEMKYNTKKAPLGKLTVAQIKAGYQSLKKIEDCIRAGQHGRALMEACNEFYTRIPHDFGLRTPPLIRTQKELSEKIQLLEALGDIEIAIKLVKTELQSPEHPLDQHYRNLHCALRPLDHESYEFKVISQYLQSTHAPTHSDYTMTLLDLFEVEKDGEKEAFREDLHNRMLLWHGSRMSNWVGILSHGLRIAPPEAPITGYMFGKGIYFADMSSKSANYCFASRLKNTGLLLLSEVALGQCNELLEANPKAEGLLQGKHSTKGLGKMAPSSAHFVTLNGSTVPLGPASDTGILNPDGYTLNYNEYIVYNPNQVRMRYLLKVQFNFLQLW
T1 sequence (P09874 whole entry): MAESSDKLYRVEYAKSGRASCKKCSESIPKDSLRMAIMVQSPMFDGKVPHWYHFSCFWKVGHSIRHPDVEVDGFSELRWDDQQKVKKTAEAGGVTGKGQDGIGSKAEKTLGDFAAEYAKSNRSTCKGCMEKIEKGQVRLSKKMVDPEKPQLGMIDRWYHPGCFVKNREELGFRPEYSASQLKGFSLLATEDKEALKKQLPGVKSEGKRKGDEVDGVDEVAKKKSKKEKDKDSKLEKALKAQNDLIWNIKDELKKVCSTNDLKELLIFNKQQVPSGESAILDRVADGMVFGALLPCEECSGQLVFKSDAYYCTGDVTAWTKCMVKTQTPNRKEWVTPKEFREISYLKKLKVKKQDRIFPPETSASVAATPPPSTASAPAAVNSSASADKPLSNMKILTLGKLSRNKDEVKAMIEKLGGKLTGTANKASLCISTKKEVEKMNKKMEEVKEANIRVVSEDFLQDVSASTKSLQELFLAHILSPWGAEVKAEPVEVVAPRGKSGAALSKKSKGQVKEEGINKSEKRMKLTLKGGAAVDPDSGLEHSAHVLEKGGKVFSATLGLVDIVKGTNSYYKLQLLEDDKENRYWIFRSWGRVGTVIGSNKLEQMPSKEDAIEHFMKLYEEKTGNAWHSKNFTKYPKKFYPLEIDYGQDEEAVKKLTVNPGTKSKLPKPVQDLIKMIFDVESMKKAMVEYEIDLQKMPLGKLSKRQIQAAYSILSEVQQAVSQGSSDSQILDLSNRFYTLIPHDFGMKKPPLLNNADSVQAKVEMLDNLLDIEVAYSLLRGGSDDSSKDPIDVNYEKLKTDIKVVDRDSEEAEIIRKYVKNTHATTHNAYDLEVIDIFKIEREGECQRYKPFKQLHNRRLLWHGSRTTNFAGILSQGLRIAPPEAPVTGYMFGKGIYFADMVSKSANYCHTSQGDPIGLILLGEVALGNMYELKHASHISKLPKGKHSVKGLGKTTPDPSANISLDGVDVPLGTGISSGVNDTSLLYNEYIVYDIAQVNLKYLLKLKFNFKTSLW

`O=c1cc(-c2ccc(O)c(-c3c(O)cc(O)c4c(=O)cc(-c5ccc(O)cc5)oc34)c2)oc2cc(O)cc(O)c12` [AMENTOFLAVONE]: the half-maximal inhibitory concentration (IC50) in [1] is 0.187 µM; in series [2], 10.3 µM; in series [4], 0.0002 µM; in series [5], 10.3 µM. For the same compound, the Ratio IC50 in the series filed under Homo sapiens [3] was 55.2; in the series listed under Homo sapiens [6] it was 52.

Turning to `Cl.Cl.O=c1cc(-c2ccc(O)cc2)oc2c(CN3CCN(Cc4cccs4)CC3)c(O)cc(O)c12`, the Activity entry in series [7] is given as “Non-Toxic”; in [8], “Non-Toxic”; with SK-OV-3 it was 0.74; in [25] it was “Non-Toxic”; in [26] it was “Non-Toxic”; in series [27], “Non-Toxic”. Also, the Activity result in series [28], in series [29] and in series [30] was “Non-Toxic” each time. Besides, the Cmax was 2880 ng/mL in series [9] and 470 ng/mL in series [10]. In addition, the AUC(0-inf) in series [11] turned out to be 1370 ng·h/mL; in [12] it was 3630 ng·h/mL. The Tmax in [13] was determined as 1.8 min; in [14], 1.5 h. Besides, the half-life in series [15] is 3.19 h; in series [16] it was 10.7 h. Also, the mean residence time (MRT) in series [17] is 3.14 h; in series [18], 13 h. Also, in [19], the clearance is 60.5 mL/min/kg. In series [20], the Vd amounted to 11.4 L/kg. Moreover, the bioavailability in series [21] stood at 26.5%. In addition, the values for the Drug uptake entry in series [22], in series [23] and in series [24] were “Active”, “Active” and “Not Active”, respectively.

As usually defined, the IC50 is the point on the concentration scale where inhibition reaches its midpoint. The Cmax is the highest concentration seen after dosing. As a reminder, the AUC(0-inf) is total exposure, with the tail of the curve extrapolated. Read a high AUC(0-inf) as more exposure. What is called Tmax is the time from dosing to the highest level. What is called half-life is the time needed for the level to fall by half in the phase considered. Low readings indicate rapid decline, high ones slow decline. What is called MRT is a mean duration of stay, worked out from the concentration-time curve. As usually defined, the clearance is the volume of plasma or blood freed of the substance per unit of time. A lower clearance goes with a low capacity for elimination. The term bioavailability denotes dose-corrected exposure relative to a reference, in per cent. Lower therefore signals little systemic uptake.

(Values after ChEMBL document CHEMBL4842357, “Discovery of Novel Apigenin-Piperazine Hybrids as Potent and Selective Poly (ADP-Ribose) Polymerase-1 (PARP-1) Inhibitors for the Treatment of Cancer” (J Med Chem, 2021).)
